Laboratory results from PMC9653339, “Revisiting the anticancer properties of phosphane(9-ribosylpurine-6-thiolato)gold(I) complexes and their 9H-purine precursors” (Journal of Biological Inorganic Chemistry, 2022).
Like-named read-outs stand apart in the source and are kept apart here.

Assays:
Format in all cases: cell-based, human
[1] = tested on: EA.hy926 endothelial hybrid cells; assay: MTT cell viability assay, EA.hy926
Procedure: (§1) All complexes stable in solution were investigated for their anti-proliferative effect on nine human cancer cell lines, using the MTT-based cell viability assay. Cells were seeded in 96-well microtiter plates (Sarstedt) with a cell density of 0.05 × 10^6 cells per ml and 100 µL per well and incubated for 24 h. A dilution series of test compounds was added to the wells, ranging in twelve steps from 100 µM to 5 nM. As a control, equal amounts of DMSO were added. Treated cells were further incubated for 72 h. Then, 12.5 µL per well of MTT solution (0.05% in phosphate-buffered saline (PBS)) was added, followed by another 2 h of incubation. The plates were centrifuged, the medium was discarded and 25 µL per well of SDS solution in DMSO (10% SDS, 0.6% AcOH in DMSO) was added to dissolve the formazan. The plates were incubated for a further hour. Absorbances at 570 nm and 630 nm were measured using a plate reader (Tecan). Background absorbance (630 nm) was subtracted from the formazan signal (570 nm). The resulting absorbance was directly proportional to the amount of viable cells. The control was normalized to 100% viable cells and viability of cells treated with test compounds was calculated accordingly. IC50 values were calculated based on a sigmoidal fit model using GraphPad Prism. Means and SD were calculated from at least four independent experiments.

[2] = tested on: HCT-116^wt colon carcinoma cells; assay: MTT cell viability assay, HCT-116wt; settings: 72 h
Procedure: as §1, with “Cells” for “All complexes stable in solution were investigated for their anti-proliferative effect on nine human cancer cell lines, using the MTT-based cell viability assay. Cells”

[3] = tested on: HeLa cervix carcinoma cells; assay: MTT cell viability assay, HeLa; settings: 72 h
Procedure: as §1

[4] = tested on: HT-29 colon carcinoma cells; assay: MTT cell viability assay, HT-29
Procedure: as §1

[5] = tested on: mdr KB-V1^Vbl cervix carcinoma cells; assay: MTT cell viability assay, KB-V1 (with and without verapamil); settings: 72 h, without verapamil
Procedure: as §1

[6] = tested on: MCF-7 mamma carcinoma cells; assay: MTT cell viability assay, MCF-7
Procedure: as §1

[7] = tested on: mdr MCF-7^Topo mamma carcinoma cells; assay: MTT cell viability assay, MCF-7Topo; settings: 72 h
Procedure: as §1

518A2 melanoma cells [8] = assay: Influence on the cell cycle (PI flow cytometry); settings: 518A2 cells, 24 h, IC50 concentrations (5: approximately twice its IC50)
Procedure: The complexes were investigated for their effect on the cell cycle. Cells were seeded in 6-well plates (Sarstedt) with 3 mL per well and a cell density of 0.05 × 10^6 cells per mL and incubated for 24 h. […] The supernatant of each sample was transferred into a separate tube on ice, the cell monolayer was rinsed once with PBS and the cells were harvested using trypsin, and also transferred into the tube. The cells were pelleted (4 °C, 150 × g, 5 min), re-suspended in 1 mL ice cold EtOH (70%) and stored for at least 1 h at 4 °C. Prior to propidium iodide (PI) staining, the cells were centrifuged (150×g, 5 min), the supernatant was discarded and the cells were layered with 1 mL PBS for 5 min. The cells were centrifuged again and the pellet was re-suspended in 200 µL of PI staining solution (50 µg/mL PI, 1% sodium citrate in PBS) containing 1 µL RNase (10 mg/mL stock solution) and incubated in dark for 30 min at 37 °C. The cell cycle distribution was assessed by flow cytometry (Beckmann Coulter). Means and SD were calculated from at least three independent experiments.

518A2 melanoma cells [9] = assay: Lactate dehydrogenase (LDH) cytotoxicity assay; settings: 518A2 cells, 10 µM, 24 h
Procedure: 518A2 melanoma cells were seeded in 96-well flat bottom microtiter plates (Sarstedt) with 100 µL per well and a cell density of 0.05 × 10^6 cells per mL. Wells containing medium alone were additionally set for background measurement. Cells were allowed to grow overnight followed by substance treatment with 11.1 µL of tenfold concentrated test compound dilutions and further incubated for 24 h. As a positive control, 10 µL per well of lysis solution (9% Triton-X 100 in Millipore H2O) was added and incubated for 45 min to maintain maximum LDH release, the same amount was added to maximum release background correction wells containing only medium. After centrifugation (4 °C, 150×g, 5 min), 50 µL of the supernatant of each well was transferred on a fresh microtiter plate followed by addition of 50 µL LDH assay buffer (223 mg of 2-p-iodophenyl-3-p-nitrophenyl-5-phenyltetrazolium chloride, 57 mg of N-methyl-phenazonium methyl sulfate, 575 mg of […], 3.2 g of lactic acid in 480 ml 200 mM Tris–Cl, pH 8.0) per well. The plate was incubated in the dark for 10–30 min at room temperature. Then 50 µL stop solution (1 M acetic acid) was added per well and the absorbance was measured at 490 nm. The mean value of background wells with medium alone was subtracted from the negative control and test wells. Additionally, the mean value of volume correction wells was subtracted from maximum LDH release wells. The percentage of LDH release was calculated, with the maximum LDH release set as 100% and the negative control as 0% release. Means and SD were calculated from at least three independent experiments.

EA.hy926 cells = assay: Tube formation assay; settings: 5 µM (CA-4 0.01 µM)
Procedure: EA.hy926 cells were cultured overnight in endothelial medium (37 °C, 95% humidity, 5% CO2) instead of DMEM. In addition, Matrigel was thawed on ice in the refrigerator. Pipette tips and 96-well plates were stored at − 20 °C overnight. The next day, 30 µL of Matrigel was added to each well bubble-free and the well plate was incubated for approximately 45 min (37 °C, 95% humidity, 5% CO2). Subsequently, 100 µL of cell suspension was added to each well at a concentration of 0.4–0.5 × 10^6 cells/mL onto the Matrigel-treated wells and the substances were added in tenfold pre-dilution. This was followed by incubation for approximately 6 h, until tubes formed in the negative control with DMSO. At this point, documentation under the microscope took place.

SMILES | IC50 ([1]; Homo sapiens, EA.hy 926, 72 h) | IC50 ([2]; Homo sapiens, Colon carcinoma cell) | IC50 ([3]; Homo sapiens, HeLa) | IC50 ([4]; Homo sapiens, HT-29, 72 h) | IC50 ([5]; Homo sapiens, KB-V1/Vbl) | IC50 ([6]; Homo sapiens, MCF7, 72 h) | IC50 ([7]; Homo sapiens, MCF7/Topo) | Effect on the cell cycle (518A2 melanoma cells [8]) | LDH release (necrosis) (518A2 melanoma cells [9]) | Inhibition of tube formation (EA.hy926 cells) | IC50 ([1]; 72 h) | IC50 ([4]; 72 h) | IC50 [5] | IC50 ([6]; 72 h, read-out: IC50 MCF7) | IC50 ([7]; read-out: IC50 MCF7^Topo) | IC50 [2] | IC50 [3]
Sc1ncnc2nc[nH]c12 [6-MP, 6-Mercaptopurine, reference compound] | 920 ± 40 nM | 5300 ± 280 nM | 1400 ± 100 nM | 1400 ± 60 nM | 1600 ± 100 nM | 3700 ± 260 nM | 6400 ± 460 nM | accumulated in G1-phase | no enzyme could be detected |  |  |  |  |  |  |  | 
Nc1nc2nc[nH]c2c(=S)[nH]1 [6-TG, 6-thioguanine, reference compound] | 250 ± 20 nM |  | 190 ± 10 nM | 1200 ± 80 nM | 500 ± 50 nM | 980 ± 80 nM | 900 ± 90 nM | accumulated in G1-phase | no enzyme could be detected | stronger such effect when compared to 6-MP |  |  |  |  |  |  | 
CC(=O)OC[C@H]1O[C@@H]([S-])[C@H](OC(C)=O)[C@@H](OC(C)=O)[C@@H]1OC(C)=O.CCP(CC)CC.[Au+] [Auranofin, auranofin] |  |  |  |  |  |  |  | arrested mainly in S-phase | no enzyme could be detected | inhibitory effects | 820 ± 40 nM | 2000 ± 180 nM | 1900 ± 70 nM | 2200 ± 220 nM | 4700 ± 430 nM |  | 
OC[C@H]1O[C@@H](n2cnc3c([S][Au][PH](c4ccccc4)(c4ccccc4)c4ccccc4)ncnc32)[C@H](O)[C@@H]1O [Complex 5, (1,7-Dihydro-6H-purine-9-β-D-ribofuranosyl-6-thiolato) (triphenylphosphane) gold(I)] |  |  |  |  |  |  |  | both a G1-phase arrest and an S-phase arrest | no enzyme could be detected | inhibitory effect, comparable in strength to that of 6-TG | 340 ± 30 nM | 1200 ± 90 nM |  | 2400 ± 220 nM | 1700 ± 140 nM | 1700 ± 200 nM | 190 ± 10 nM
Nc1nc([S][Au][PH](c2ccccc2)(c2ccccc2)c2ccccc2)c2ncn([C@@H]3O[C@H](CO)[C@@H](O)[C@H]3O)c2n1 [Complex 6, (2-Amino-1,7-dihydro-6H-purine-9-β-D-ribofuranosyl-6-thiolato) (triphenylphosphane) gold(I)] |  |  |  |  |  |  |  |  | no enzyme could be detected |  | 3800 ± 130 nM | 3100 ± 190 nM | 910 ± 90 nM | 5800 ± 570 nM | 3200 ± 290 nM | 5500 ± 200 nM | 2400 ± 140 nM
